ChEMBL document CHEMBL4507263, “Data for DCP probe BAY-474” (2021)

Tests used:
[1] = target: Delta-type opioid receptor (Homo sapiens) (UniProt P41143); conditions: Compound concentration 10.0 uM
[2] = test system: Proto-oncogene tyrosine-protein kinase receptor Ret (Homo sapiens), P07949 [V804M]; conditions: Compound concentration 1000.0 nM
[3] = target: Casein kinase I isoform gamma-2 (Homo sapiens) (UniProt P78368); conditions: Compound concentration 1000.0 nM
[4] = target: Protein kinase C iota type (Homo sapiens) (UniProt P41743); conditions: Compound concentration 1000.0 nM
Sequence of Protein kinase C iota type (Homo sapiens) (P41743 whole entry): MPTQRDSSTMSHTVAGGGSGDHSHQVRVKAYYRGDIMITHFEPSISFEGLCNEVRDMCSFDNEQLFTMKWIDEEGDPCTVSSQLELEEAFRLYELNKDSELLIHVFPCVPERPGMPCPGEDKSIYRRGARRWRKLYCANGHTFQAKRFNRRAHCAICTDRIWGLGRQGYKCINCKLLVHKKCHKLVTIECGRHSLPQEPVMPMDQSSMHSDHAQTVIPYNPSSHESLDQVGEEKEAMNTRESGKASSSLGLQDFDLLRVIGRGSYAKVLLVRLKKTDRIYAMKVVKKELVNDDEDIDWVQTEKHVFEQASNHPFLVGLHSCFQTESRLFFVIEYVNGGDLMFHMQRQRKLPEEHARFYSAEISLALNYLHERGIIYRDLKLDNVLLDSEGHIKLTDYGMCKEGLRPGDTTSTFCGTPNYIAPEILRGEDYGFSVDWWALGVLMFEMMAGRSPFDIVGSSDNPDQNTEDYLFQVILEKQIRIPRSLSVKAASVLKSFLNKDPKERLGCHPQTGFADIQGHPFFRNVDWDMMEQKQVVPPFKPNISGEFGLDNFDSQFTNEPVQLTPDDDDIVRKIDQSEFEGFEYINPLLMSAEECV

[5] = target: Alpha-2B adrenergic receptor (Homo sapiens) (UniProt P18089); conditions: Compound concentration 10.0 uM
Sequence of Alpha-2B adrenergic receptor (Homo sapiens) (P18089 whole entry): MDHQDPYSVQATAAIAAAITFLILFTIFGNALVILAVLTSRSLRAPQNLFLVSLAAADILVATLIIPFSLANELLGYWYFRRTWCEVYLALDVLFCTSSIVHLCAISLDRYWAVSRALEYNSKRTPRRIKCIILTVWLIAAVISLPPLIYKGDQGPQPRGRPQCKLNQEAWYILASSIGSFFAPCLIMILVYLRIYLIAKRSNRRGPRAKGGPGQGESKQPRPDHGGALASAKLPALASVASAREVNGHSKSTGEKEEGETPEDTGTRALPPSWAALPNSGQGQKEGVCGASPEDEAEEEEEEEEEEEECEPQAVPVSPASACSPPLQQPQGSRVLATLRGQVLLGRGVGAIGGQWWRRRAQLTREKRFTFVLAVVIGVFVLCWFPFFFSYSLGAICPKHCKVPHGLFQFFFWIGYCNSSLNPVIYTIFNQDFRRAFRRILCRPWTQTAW

[6] = target: Muscarinic acetylcholine receptor M3 (Homo sapiens) (UniProt P20309); conditions: Compound concentration 10.0 uM
Sequence of Muscarinic acetylcholine receptor M3 (Homo sapiens) (P20309 whole entry, looked up): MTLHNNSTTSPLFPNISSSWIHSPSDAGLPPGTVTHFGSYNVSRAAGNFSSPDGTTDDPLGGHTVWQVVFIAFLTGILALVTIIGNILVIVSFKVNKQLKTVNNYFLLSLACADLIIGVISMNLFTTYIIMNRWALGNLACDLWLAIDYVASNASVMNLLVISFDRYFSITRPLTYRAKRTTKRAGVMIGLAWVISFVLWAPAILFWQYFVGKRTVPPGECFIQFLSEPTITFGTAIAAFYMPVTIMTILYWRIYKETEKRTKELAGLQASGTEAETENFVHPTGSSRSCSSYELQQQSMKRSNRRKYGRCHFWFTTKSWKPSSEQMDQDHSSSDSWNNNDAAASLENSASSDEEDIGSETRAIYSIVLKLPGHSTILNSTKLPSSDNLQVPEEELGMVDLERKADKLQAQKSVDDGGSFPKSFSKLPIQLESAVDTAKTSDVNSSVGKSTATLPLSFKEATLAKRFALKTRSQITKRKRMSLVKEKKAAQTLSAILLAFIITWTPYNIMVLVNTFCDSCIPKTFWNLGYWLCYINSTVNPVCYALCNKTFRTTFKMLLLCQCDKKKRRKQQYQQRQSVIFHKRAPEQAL

[7] = target: 5-hydroxytryptamine receptor 1E (Homo sapiens) (UniProt P28566); conditions: Compound concentration 10.0 uM
Sequence of 5-hydroxytryptamine receptor 1E (Homo sapiens) (P28566 whole entry): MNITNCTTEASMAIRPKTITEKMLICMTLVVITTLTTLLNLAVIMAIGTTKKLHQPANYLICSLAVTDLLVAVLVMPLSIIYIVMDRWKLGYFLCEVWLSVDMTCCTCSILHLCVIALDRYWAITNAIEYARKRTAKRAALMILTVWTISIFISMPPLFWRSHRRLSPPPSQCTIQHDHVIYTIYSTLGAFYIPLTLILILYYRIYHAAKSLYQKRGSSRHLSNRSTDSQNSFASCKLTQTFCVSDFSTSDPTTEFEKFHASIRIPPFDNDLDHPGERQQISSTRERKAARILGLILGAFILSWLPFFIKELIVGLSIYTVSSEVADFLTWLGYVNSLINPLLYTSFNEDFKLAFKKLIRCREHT

[8] = target: Serine/threonine-protein kinase PLK1 (Homo sapiens) (UniProt P53350); conditions: Compound concentration 1000.0 nM
[9] = test system: Proto-oncogene tyrosine-protein kinase receptor Ret (Homo sapiens), P07949 [M918T]; conditions: Compound concentration 1000.0 nM
Sequence of Proto-oncogene tyrosine-protein kinase receptor Ret (Homo sapiens), P07949 [M918T] (P07949 whole entry M918T): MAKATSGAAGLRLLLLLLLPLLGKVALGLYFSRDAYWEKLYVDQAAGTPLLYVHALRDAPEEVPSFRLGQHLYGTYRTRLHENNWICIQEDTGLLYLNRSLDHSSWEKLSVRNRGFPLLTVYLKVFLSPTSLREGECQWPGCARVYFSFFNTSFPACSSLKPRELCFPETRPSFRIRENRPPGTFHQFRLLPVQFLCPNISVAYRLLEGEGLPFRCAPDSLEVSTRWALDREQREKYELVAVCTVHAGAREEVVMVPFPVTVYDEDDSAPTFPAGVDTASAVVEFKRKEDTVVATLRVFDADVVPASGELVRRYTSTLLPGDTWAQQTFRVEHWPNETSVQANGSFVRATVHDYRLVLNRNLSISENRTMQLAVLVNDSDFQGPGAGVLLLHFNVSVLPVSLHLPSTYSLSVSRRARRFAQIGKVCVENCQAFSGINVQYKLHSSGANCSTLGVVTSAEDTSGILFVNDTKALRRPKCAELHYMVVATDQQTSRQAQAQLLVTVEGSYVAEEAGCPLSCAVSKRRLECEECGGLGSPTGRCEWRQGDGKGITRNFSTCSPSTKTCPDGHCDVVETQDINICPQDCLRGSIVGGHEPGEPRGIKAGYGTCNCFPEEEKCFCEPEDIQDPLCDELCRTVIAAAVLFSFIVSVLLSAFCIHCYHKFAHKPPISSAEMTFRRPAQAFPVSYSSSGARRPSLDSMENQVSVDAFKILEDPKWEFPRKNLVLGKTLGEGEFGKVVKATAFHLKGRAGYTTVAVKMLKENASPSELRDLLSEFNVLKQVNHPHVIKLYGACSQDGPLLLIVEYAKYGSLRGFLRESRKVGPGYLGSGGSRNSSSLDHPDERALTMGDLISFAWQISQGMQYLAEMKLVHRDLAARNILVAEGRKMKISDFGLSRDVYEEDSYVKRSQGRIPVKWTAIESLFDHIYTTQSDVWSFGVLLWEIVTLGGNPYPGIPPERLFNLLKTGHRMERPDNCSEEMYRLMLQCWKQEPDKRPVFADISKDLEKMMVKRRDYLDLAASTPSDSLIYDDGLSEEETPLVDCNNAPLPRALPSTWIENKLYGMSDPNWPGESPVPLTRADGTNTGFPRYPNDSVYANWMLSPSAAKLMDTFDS

[10] = target: Serine/threonine-protein kinase Nek4 (Homo sapiens) (UniProt P51957); conditions: Compound concentration 1000.0 nM
[11] = target: Alpha-2A adrenergic receptor (Homo sapiens) (UniProt P08913); conditions: Compound concentration 10.0 uM
Sequence of Alpha-2A adrenergic receptor (Homo sapiens) (P08913 whole entry): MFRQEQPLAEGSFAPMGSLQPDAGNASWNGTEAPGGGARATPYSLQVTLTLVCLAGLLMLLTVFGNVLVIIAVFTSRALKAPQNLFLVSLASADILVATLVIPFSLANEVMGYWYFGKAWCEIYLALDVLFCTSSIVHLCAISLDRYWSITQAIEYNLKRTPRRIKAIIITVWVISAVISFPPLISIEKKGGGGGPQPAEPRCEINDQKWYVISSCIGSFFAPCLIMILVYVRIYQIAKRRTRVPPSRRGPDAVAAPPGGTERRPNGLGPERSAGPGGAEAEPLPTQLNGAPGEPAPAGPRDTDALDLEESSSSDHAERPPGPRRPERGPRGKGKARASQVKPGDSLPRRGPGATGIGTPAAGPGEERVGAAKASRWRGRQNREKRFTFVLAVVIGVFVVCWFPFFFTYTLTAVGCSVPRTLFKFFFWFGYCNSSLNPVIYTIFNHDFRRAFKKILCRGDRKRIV

[12] = target: T1, cGMP-dependent protein kinase 1 (Homo sapiens) (UniProt Q13976); conditions: Compound concentration 1000.0 nM
T1 sequence (whole entry): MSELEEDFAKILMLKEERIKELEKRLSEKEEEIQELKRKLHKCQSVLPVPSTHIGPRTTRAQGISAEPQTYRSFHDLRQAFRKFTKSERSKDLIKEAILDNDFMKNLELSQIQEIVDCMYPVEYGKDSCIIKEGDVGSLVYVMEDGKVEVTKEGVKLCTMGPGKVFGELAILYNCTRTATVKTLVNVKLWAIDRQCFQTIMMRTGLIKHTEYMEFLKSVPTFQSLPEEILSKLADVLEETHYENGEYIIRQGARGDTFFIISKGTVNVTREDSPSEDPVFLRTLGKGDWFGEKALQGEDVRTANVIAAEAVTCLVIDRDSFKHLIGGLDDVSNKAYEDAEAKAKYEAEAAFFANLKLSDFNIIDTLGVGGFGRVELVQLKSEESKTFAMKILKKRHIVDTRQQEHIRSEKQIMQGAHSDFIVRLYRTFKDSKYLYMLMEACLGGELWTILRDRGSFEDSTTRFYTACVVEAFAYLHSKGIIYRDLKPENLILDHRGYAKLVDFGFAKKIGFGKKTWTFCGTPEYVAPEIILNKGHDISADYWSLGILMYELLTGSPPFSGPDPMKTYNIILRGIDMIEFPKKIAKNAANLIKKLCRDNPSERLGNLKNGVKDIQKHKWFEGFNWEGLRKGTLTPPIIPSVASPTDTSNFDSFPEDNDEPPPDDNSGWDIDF

[13] = target: Focal adhesion kinase 1 (Homo sapiens) (UniProt Q05397); conditions: Compound concentration 1000.0 nM
[14] = target: Phosphatidylinositol 5-phosphate 4-kinase type-2 beta (Homo sapiens) (UniProt P78356); conditions: Compound concentration 1000.0 nM
[15] = target: 5-hydroxytryptamine receptor 1B (Homo sapiens) (UniProt P28222); conditions: Compound concentration 10.0 uM
Sequence of 5-hydroxytryptamine receptor 1B (Homo sapiens) (P28222 whole entry): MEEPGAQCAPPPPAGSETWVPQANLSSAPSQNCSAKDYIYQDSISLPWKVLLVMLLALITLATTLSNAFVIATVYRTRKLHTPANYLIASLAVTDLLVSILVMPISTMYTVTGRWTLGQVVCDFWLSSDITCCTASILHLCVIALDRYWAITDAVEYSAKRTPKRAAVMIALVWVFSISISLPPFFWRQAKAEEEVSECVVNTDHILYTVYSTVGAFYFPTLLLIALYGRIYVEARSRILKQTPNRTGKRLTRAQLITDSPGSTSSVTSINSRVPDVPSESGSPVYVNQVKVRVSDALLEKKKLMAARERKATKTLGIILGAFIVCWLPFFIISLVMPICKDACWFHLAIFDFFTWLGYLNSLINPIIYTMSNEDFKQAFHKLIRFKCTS

[16] = target: Activin receptor type-2A (Homo sapiens) (UniProt P27037); conditions: Compound concentration 1000.0 nM
[17] = target: Casein kinase I isoform epsilon (Homo sapiens) (UniProt P49674); conditions: Compound concentration 1000.0 nM
[18] = target: 5-hydroxytryptamine receptor 2A (Homo sapiens) (UniProt P28223); conditions: Compound concentration 10.0 uM
Sequence of 5-hydroxytryptamine receptor 2A (Homo sapiens) (P28223 whole entry): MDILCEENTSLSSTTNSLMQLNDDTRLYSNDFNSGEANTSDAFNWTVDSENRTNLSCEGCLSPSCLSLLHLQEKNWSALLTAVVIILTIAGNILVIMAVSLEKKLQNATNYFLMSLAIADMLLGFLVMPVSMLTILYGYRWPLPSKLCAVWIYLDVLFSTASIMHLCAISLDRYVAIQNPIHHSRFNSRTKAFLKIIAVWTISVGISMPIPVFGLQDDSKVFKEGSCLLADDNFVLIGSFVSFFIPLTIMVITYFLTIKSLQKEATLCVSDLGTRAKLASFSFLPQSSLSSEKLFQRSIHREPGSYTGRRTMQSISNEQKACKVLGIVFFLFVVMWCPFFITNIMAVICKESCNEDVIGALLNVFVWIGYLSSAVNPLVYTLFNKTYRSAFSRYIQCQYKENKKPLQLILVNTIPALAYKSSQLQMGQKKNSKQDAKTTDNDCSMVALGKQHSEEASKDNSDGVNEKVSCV

[19] = target: Aurora kinase C (Homo sapiens) (UniProt Q9UQB9); conditions: Compound concentration 1000.0 nM
[20] = target: T2, Alpha-1D adrenergic receptor (Homo sapiens) (UniProt P25100); conditions: Compound concentration 10.0 uM
T2 sequence (whole entry): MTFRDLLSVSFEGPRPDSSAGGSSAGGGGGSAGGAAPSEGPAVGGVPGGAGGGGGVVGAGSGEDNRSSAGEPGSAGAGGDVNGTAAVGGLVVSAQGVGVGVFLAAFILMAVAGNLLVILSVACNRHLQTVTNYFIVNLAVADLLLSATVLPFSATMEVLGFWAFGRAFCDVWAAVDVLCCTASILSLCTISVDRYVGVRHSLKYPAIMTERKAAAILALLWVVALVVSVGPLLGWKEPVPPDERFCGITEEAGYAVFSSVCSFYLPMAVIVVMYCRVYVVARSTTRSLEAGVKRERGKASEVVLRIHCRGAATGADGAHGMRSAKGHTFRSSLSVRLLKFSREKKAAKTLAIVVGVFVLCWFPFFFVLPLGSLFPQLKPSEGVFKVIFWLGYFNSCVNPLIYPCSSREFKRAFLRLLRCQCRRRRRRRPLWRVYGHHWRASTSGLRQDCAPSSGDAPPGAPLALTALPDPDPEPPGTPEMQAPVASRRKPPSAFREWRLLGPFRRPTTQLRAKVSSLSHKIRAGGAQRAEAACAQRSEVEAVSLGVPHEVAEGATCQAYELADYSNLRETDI

[21] = target: Tyrosine-protein kinase Tec (Homo sapiens) (UniProt P42680); conditions: Compound concentration 1000.0 nM
[22] = target: Protein kinase C iota type (Homo sapiens) (UniProt P41743); experiment: PKCiota (h) Millipore kinase activity assay; conditions: Compound concentration 1.0 uM
[23] = target: Mitogen-activated protein kinase 13 (Homo sapiens) (UniProt O15264); experiment: SAPK4 (h) Millipore kinase activity assay; conditions: Compound concentration 1.0 uM
[24] = target: Proto-oncogene tyrosine-protein kinase Src (Homo sapiens) (UniProt P12931); experiment: cSRC (h) Millipore kinase activity assay; conditions: Compound concentration 1.0 uM
[25] = target: Myotonin-protein kinase (Homo sapiens) (UniProt Q09013); experiment: DMPK (h) Millipore kinase activity assay; conditions: Compound concentration 1.0 uM
[26] = target: Mitogen-activated protein kinase kinase kinase 5 (Homo sapiens) (UniProt Q99683); experiment: ASK1 (h) Millipore kinase activity assay; conditions: Compound concentration 1.0 uM
[27] = target: Sodium-dependent noradrenaline transporter (Homo sapiens) (UniProt P23975); conditions: Compound concentration 10.0 uM
[28] = target: Ephrin type-A receptor 8 (Homo sapiens) (UniProt P29322); experiment: EphA8 (h) Millipore kinase activity assay; conditions: Compound concentration 1.0 uM
[29] = target: Aurora kinase A (Homo sapiens) (UniProt O14965); experiment: Aurora-A( h) Millipore kinase activity assay; conditions: Compound concentration 1.0 uM

Sequence of Delta-type opioid receptor (Homo sapiens) (P41143 whole entry): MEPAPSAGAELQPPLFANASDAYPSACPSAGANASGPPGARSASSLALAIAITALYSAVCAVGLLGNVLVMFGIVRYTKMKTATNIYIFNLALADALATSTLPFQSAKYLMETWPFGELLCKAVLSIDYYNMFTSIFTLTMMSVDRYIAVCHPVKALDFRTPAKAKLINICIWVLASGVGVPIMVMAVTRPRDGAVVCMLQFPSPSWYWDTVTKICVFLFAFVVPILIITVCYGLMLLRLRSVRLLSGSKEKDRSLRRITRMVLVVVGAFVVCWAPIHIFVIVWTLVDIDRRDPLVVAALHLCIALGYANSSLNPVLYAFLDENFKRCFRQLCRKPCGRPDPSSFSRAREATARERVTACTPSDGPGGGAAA
Sequence of Proto-oncogene tyrosine-protein kinase receptor Ret (Homo sapiens), P07949 [V804M] (P07949 whole entry V804M, canonical isoform): as the sequence (P07949 whole entry M918T) above, with V804M, T918M counted along it

CC1=C(C#N)[C@@H](c2ccc3[nH]nc(C)c3c2)C(C#N)=C(c2ccc(Cl)cc2)N1 [BAY-827]
inactive: inhibition [1] 33.4% | residual activity [2] 73.8% | residual activity [3] 100% | residual activity [4] 99.4% | inhibition [5] 4.71% | inhibition [6] 8.81% | inhibition [7] -3.84% | residual activity [8] 100% | residual activity [9] 97.2% | residual activity [10] 90.1% | inhibition [11] 7.83% | residual activity [12] 86.9% | residual activity [13] 100% | residual activity [14] 69.3% | inhibition [15] 17.2% | residual activity [16] 100% | residual activity [17] 91.7% | inhibition [18] 5.76% | residual activity [19] 100% | inhibition [20] 7.74% | residual activity [21] 100%

CC1=C(C#N)C(c2ccc3[nH]nc(C)c3c2)C(C#N)=C(C)N1 [BAY-474]
inactive: inhibition [1] 16.9% | inhibition [22] -7% | inhibition [23] 10% | inhibition [5] 8.04% | inhibition [6] -1.54% | inhibition [24] 8% | inhibition [7] 8.21% | inhibition [25] 3% | inhibition [11] -3.48% | inhibition [26] -6% | inhibition [27] 6% | inhibition [28] -1% | inhibition [15] 0.48% | inhibition [29] 40% | inhibition [18] 8.75% | inhibition [20] 2.5%
